Type in all cases: cell-based
Experiment [1] deals with A375 wild type malignant melanoma cell line. Briefly: Proliferation inhibition measured by CTG (CellTiter Glo), A375. The settings on record: Homo sapiens, A-375. The method in brief: (§1)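 Cells seeded overnight, then exposed 120 h to compound in 10-point 3-fold dilution series; viability by CellTiter-Glo luminescence after 10 min shake and 10 min incubation. IC50 from fitted inhibition curves, binned as >10 μM, 1–10 μM, 100 nM–1 μM, or ≤100 nM.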
A general note: Cellular ATP, detected with luciferase, serves as a proxy for viable cell number.

The test system of experiment [2] is AGS gastric cancer cell line (KRAS G12D mutation). Briefly: Proliferation inhibition measured by CTG (CellTiter Glo), AGS. The method in brief: as §1
The next experiment concerns A549 cells (G12S). Briefly: Proliferation inhibition measured by CTG (CellTiter Glo), A549. Conditions: Homo sapiens, Table 2, 120 hours incubation.
Experiment [3] concerns Hs 578T breast cancer cell line (HRAS G12D mutation). Briefly: Proliferation inhibition measured by CTG (CellTiter Glo), Hs 578T. The settings on record: Homo sapiens. The source says: (§2) NCI-H358 is a human non-small cell lung cancer cell line with KRAS G12C mutation; PANC-1 and AsPC-1 are pancreatic cancer cell lines with KRAS G12D mutation; AGS is a gastric cancer cell line with KRAS G12D mutation; A427 is a lung cancer cell line with KRAS G12D mutation; THP-1 is a leukemia cell line with NRAS G12D mutation; Hs 578T is a breast cancer cell line with HRAS G12D mutation; SW480 is a colon cancer cell lines with KRAS G12V mutation; A375 is a wild type malignant melanoma cell line. The proliferation inhibitory effect of the compounds on various mutations was evaluated by determining the proliferation inhibitory activity of the compounds on these cell lines.
(§3) The assay was conducted on either 384-well plates or 96-well plates. The procedures are as follows:
(§4) The cell suspensions were added to 384- or 96-well plates (384-well plate: 40 μL; 96-well plate: […]) except for peripheral wells. The plates were incubated in a carbon dioxide incubator overnight. Prepared compounds (10 concentration gradients by serial 3-fold dilution) were added to the wells. The cell plates were incubated in a carbon dioxide incubator for 120 hours. CellTiter Glo reagent (384 well plate: 25 μL; 96 well plate: 100 μL) was added to the 384- or 96-well plates. The plates were shaken for 10 minutes away from light, and incubated for 10 minutes. The plates were read by EnVision system. Inhibition curves were plotted using XLFit and IC50 values were calculated. “IC50>10 μM” is denoted by “*”, “10 μM≥IC50>1 μM” is denoted by “**”, “1 μM≥IC50>100 nM” is denoted by “***”, and “IC50≤100 nM” is denoted by “****”.

In experiment [4] the test system is THP-1 leukemia cell line (NRAS G12D mutation). In words: Proliferation inhibition measured by CTG (CellTiter Glo), THP-1. Conditions: Homo sapiens.
Excerpt: as §2, §3, §4

Experiment [5] concerns A427 lung cancer cell line (KRAS G12D mutation). In words: Proliferation inhibition measured by CTG (CellTiter Glo), A427. The settings on record: Homo sapiens, A-427.
Excerpt: as §2, §3, §4

Another experiment deals with NCI-H647 cells (G13D). Briefly: Proliferation inhibition measured by CTG (CellTiter Glo), NCI-H647. Conditions: Homo sapiens, Table 2, 120 hours incubation.
Experiment [6] concerns SW480 colon cancer cell line (KRAS G12V mutation). Briefly: Proliferation inhibition measured by CTG (CellTiter Glo), SW480. Conditions: Homo sapiens, Table 2, 120 hours incubation, read-out: IC50 SW480 (G12V).
Excerpt: as §2, §3, §4

Experiment [7] relates to AsPC-1 pancreatic cancer cell line (KRAS G12D mutation). Briefly: Proliferation inhibition measured by CTG (CellTiter Glo), AsPC-1. The settings on record: Homo sapiens, ASPC1.
Excerpt: as §2, §3, §4

Experiment [8] deals with NCI-H358 cells (KRAS G12C mutation). Briefly: Proliferation inhibition measured by CTG (CellTiter Glo), NCI-H358. Conditions: Homo sapiens. The procedure, abridged:
as §1

For experiment [9], the system named is PANC-1 pancreatic cancer cell line (KRAS G12D mutation). Briefly: Proliferation inhibition measured by CTG (CellTiter Glo), PANC-1. Conditions: Homo sapiens, Table 2, 120 hours incubation.
Excerpt: as §2, §3
The cell suspensions were added to 384- or 96-well plates (384-well plate: 40 μL; 96-well plate: […]) except for peripheral wells. The plates were incubated in a carbon dioxide incubator overnight. Prepared compounds (10 concentration gradients by serial 3-fold dilution) were added to the wells. The cell plates were incubated in a carbon dioxide incubator for 120 hours. CellTiter Glo reagent (384 well plate: 25 μL; 96 well plate: 100 μL) was added to the 384- or 96-well plates. […] The plates were read by EnVision system. Inhibition curves were plotted using XLFit and IC50 values were calculated. […]

The next experiment deals with RPMI 8226 cells (G12A). Briefly: Proliferation inhibition measured by CTG (CellTiter Glo), RPMI 8226. The settings on record: Homo sapiens, Table 2, 120 hours incubation.
Where [10] appears, read: Table 1, CTG, 120 hours incubation, class symbol, read-out: IC50 (A375).
Where [11] appears, read: Table 1, CTG, 120 hours incubation, class symbol, read-out: IC50 (AGS).
The mark [12] stands for this setting: Table 1, CTG, 120 hours incubation, class symbol.
[13] abbreviates: Table 1, number in parentheses, unit not given in Table 1 (legend and Table 2 use μM).
Setting [14] is: Table 1, CTG, 120 hours incubation, class symbol, read-out: IC50 (H358).

Results on 2 molecules are retold here after patent US20230391785A1, “NITROGEN-CONTAINING HETEROCYCLIC COMPOUND, METHOD FOR PREPARING SAME AND USE OF SAME” (280 Bio, Inc., priority 2021, published 2023).

What is called IC50 is the midpoint of a concentration-inhibition curve.

Molecules are shown by their SMILES. Read-outs that look alike come from different tables or passages of the source.

Consider `CN1CCC[C@H]1COc1nc2c(c(N3CCn4cncc4C3)n1)CCN(c1cccc3cccc(Cl)c13)C2` [Compound 2], for which the IC50 in experiment [1] (Table 1, number in parentheses, unit not given in Table 1 (Table 2 gives the same value in μM), read-out: IC50 (A375)) is 0.167 µM; in [1] (setting [10]), 0.1 to 1 µM; in [1] (Table 2, CTG, 120 hours incubation, read-out: IC50 A375 (wide type)), 0.167 µM; in [2] (Table 1, number in parentheses, unit not given in Table 1 (Table 2 gives the same value in μM), read-out: IC50 (AGS)), 0.092 µM; in experiment [2] (setting [11]) it was at most 0.1 µM; in experiment [2] (Table 2, CTG, 120 hours incubation, read-out: IC50 AGS (G12D)), 0.092 µM. The IC50 in the experiment with A549 cells (G12S) was 253 nM; in experiment [3] (setting [12]), 0.1 to 1 µM; in experiment [3] (setting [13]) it was 0.237 µM; in experiment [4] (setting [12]), at most 0.1 µM; in [4] (setting [13]), 0.067 µM; in [5] (setting [13]) it was 0.07 µM. The IC50 in [5] (setting [12]) was at most 0.1 µM; with NCI-H647 cells (G13D), 115 nM; in [6] it was 98 nM; in experiment [7] (setting [13]), 0.139 µM; in experiment [7] (setting [12]) it was 0.1 to 1 µM; in experiment [8] (setting [14]), at most 0.1 µM. The 50% inhibitory concentration (IC50) worked out at 0.063 µM in experiment [8] (Table 1, number in parentheses, no unit printed in Table 1 (Table 2 gives the same values of compound 2 in μM), read-out: IC50 (H358)); 0.063 µM in [8] (Table 2, CTG, 120 hours incubation, read-out: IC50 H358 (G12C)); 193 nM in [9]; 128 nM with RPMI 8226 cells (G12A).
`CN1CCC[C@H]1COc1nc2c(c(N3CCn4cnc(C#N)c4C3)n1)CCN(c1cccc3cccc(Cl)c13)C2` [Compound 9]: the IC50 in experiment [1] (setting [10]) is 0.1 to 1 µM; in experiment [2] (setting [11]) it was at most 0.1 µM; in experiment [5] (setting [12]), at most 0.1 µM; in experiment [7] (setting [12]), at most 0.1 µM; in [8] (setting [14]), at most 0.1 µM.
